Molecules are shown by their SMILES. Like-named read-outs stand apart in the source and are kept apart here.

The target of series [1] is T1, D168A mutant of the HCV NS3/4A 1b protease enzyme (Hepatitis C virus genotype 1b, UniProt P26663, D1194A).
T1 construct: 10× stocks of NS3/4A protease enzyme from Bioenza (Mountain View, Calif.); purchased Bioenza (Mountain View, Calif.)
Description: HCV Protease FRET Assay (IC50), D168A mutant. Format: biochemical.

Series [2] concerns the target T2, A156T mutant of the HCV NS3/4A 1b protease enzyme (Hepatitis C virus genotype 1b, UniProt P26663, A1182T).
T2 construct: 10× stocks of NS3/4A protease enzyme from Bioenza (Mountain View, Calif.); purchased Bioenza (Mountain View, Calif.)
Description: HCV Protease FRET Assay (IC50_APP), A156T mutant. The series is classed as biochemical. As to conditions: read-out: IC50_APP, HCV A156T; apparent IC50, A156T mutant.

In series [3] the target is T3, wild type HCV NS3/4A 1b protease enzyme (Hepatitis C virus genotype 1b, UniProt P26663).
T3 construct: 10× stocks of NS3/4A protease enzyme from Bioenza (Mountain View, Calif.); purchased Bioenza (Mountain View, Calif.)
Description: biochemical. Format: biochemical.

For series [4], the system named is HCV RNA replicon in cell line ET (luc-ubi-neo/ET), human Huh7 hepatoma. Description: Method A: HCV RNA replicon antiviral assay (luciferase, ET cell line). The series is classed as cell-based, Hepatitis C virus. In outline:
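Six 3-fold dilutions of each drug were tested on subconfluent luc-ubi-neo/ET Huh7 replicon cells (5×10^3/well) for 72 hr at 37 °C. EC50 and EC90 came from luciferase read-out, IC50 from CytoTox-1 cell number, and […]; interferon alpha-2b was run each time as control.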
A general note: In antiviral work, replicon cells carry a viral genome segment that copies itself.

The target in series [5] is T2, A156T mutant of the HCV NS3/4A 1b protease enzyme. Description: HCV Protease FRET Assay (IC50), A156T mutant. The series is classed as biochemical. On the procedure: HCV Protease FRET Assay for Wild Type and Mutated NS3/4A 1b Enzymes (IC50)
The protocol is a modified FRET-based assay (v—02) from In Vitro Resistance Studies of HCV Serine Protease Inhibitors, 2004, JBC, vol. 279, No. 17, pp 17508-17514.
10× stocks of NS3/4A protease enzyme from Bioenza (Mountain View, Calif.) and 1.13× 5-FAM/QXL™ 520 FRET peptide substrate from Anaspec (San Jose, Calif.) were prepared in 50 mM HEPES, pH 7.8, 100 mM NaCl, 5 mM DTT and 20% glycerol. 5 μL of each enzyme were pre-incubated in a Corning (#3573) 384-well, black, non-treated microtiter plate (Corning, N.Y.) for 30 min at 25° C. with a 0.5 μL volume of 50% DMSO and serially diluted compounds prepared in 50% DMSO. Protease reactions were started with the addition of 45 μL of the FRET substrate and monitored for 120 minutes at λex487/λem514 through Quad^4 monochromoters in a Synergy^4 plate reader from BioTek (Winooski, Vt.). At the conclusion of each assay, progress curves from each well were examined for linear reaction kinetics and fit statistics (R^2, absolute sum of squares). Initial velocity (0 minutes to 30+ minutes) from each reaction was determined from the slope of a plot of relative fluorescence units vs time (minutes) and then plotted against inhibitor concentration to estimate IC50 from log[Inhibitor] vs Response, Variable Slope model in GraphPad Prism from GraphPad Software (San Diego, Calif.).
The compound numbers correspond to the compound numbers in Table 3. […] ;

The subject of series [6] is cell line ET (luc-ubi-neo/ET), human Huh7 hepatoma cell line. Description: Method A: cytotoxicity in ET replicon cells (CytoTox-1). The series is classed as cell-based. The settings on record: concentration decreasing cell viability by 50%, 72 hr. On the procedure: The compounds were assayed to evaluate the antiviral activity and cytotoxicity of compounds in vitro using HCV RNA replicons. This assay used the cell line ET (luc-ubi-neo/ET), which is a human Huh7 hepatoma cell line that contains an HCV RNA replicon with a stable luciferase (Luc) reporter and three cell culture-adaptive mutations. […]
The ET cell line was grown in Dulbecco's modified essential media (DMEM), 10% fetal bovine serum (FBS), 1% penicillin-streptomycin (pen-strep), 1% glutamine, 250 μg/ml G418 in a 5% CO2 incubator at 37° C. All cell culture reagents were obtained from Mediatech (Manassas, Va.). Cells were trypsinized (1% trypsin:EDTA) and plated out at 5×10^3 cells/well in white 96-well assay plates (Costar) dedicated to cell number (cytotoxicity) or antiviral activity assessments. Drugs were added at six 3-fold concentrations each and the assay was run in DMEM, 5% FBS, 1% pen-strep, 1% glutamine. Human interferon alpha-2b (PBL Biolabs, New Brunswick, N.J.) was included in each run as a positive control compound. Cells were processed 72 hr post drug addition when the cells are still subconfluent. Antiviral activity was measured by analyzing replicon-derived luciferase activity using the Steady-Glo Luciferase Assay System (Promega, Madison, Wis.) according to manufacturer's instruction. The number of cells in each well was determined by CytoTox-1 reagent (Promega). […].

For series [7], the target named is T1, D168A mutant of the HCV NS3/4A 1b protease enzyme. Description: HCV Protease FRET Assay (IC50_APP), D168A mutant. Format: biochemical. The settings on record: read-out: IC50_APP, HCV D168A; apparent IC50, D168A mutant.
Series [8] deals with T3, wild type HCV NS3/4A 1b protease enzyme. Description: HCV Protease FRET Assay (IC50_APP), wild type. The series is classed as biochemical. The settings on record: read-out: IC50_APP, WT; apparent IC50, wild type NS3/4A 1b.
Where [9] appears, read: read-out: Inhibition, HCV D168A; D168A enzyme, FRET assay.
Setting [10] is: read-out: Inhibition, WT; WT enzyme, FRET assay.
Setting [11] is: Hepatitis C virus, Huh-7, assay described in Example 22.
Setting [12] is: Hepatitis C virus, Huh-7, Replicon, assay of Example 22, 72 hr, read-out: Inhibition, Replicon.
Where [13] appears, read: Hepatitis C virus, Huh-7, assay described in Example 22, read-out: Replicon (IC50).
Where [14] appears, read: read-out: Inhibition, HCV A156T; A156T enzyme, FRET assay.

By IC90 is commonly meant the concentration needed for an effect of 90%. Higher therefore signals a need for much substance. For the compound `C=C[C@@H]1C[C@]1(NC(=O)[C@@H]1C[C@@H](Oc2cc(-c3ccccc3)nc3cc(OC)ccc23)CN1C(=O)[C@H](CCNC(=O)CCl)NC(=O)OC(C)(C)C)C(=O)NS(=O)(=O)c1ccccc1` [Compound I-4, (2S)-2-[[(1,1-dimethylethoxy)carbonyl]amino]-4-(chloroacetyl)amino-butanoyl-(4R)-4-[(7-methoxy-2-phenyl-4-quinolinyl)oxy]-L-prolyl-1-amino-2-ethenyl-N-(phenylsulfonyl)-(1R,2S)-cyclopropanecarboxamide], the IC50 in series [1] (setting [9]) is 10 to 100 nM; in series [2], 100 to 1000 nM; in series [3] (setting [10]) it was less than 10 nM; in series [4] (setting [12]), 10 to 100 nM; in series [4] (setting [13]), 10 to 100 nM; in series [5] (setting [14]), 10 to 100 nM. In addition, the values for the IC50 in series [7] and in series [8] were 100 to 1000 nM and less than 10 nM, respectively. Moreover, the IC90 in series [4] (setting [11]) was in the range of 100 to 1000 nM. Further, the “Inhibition, Cytotoxicity” value in series [6] was “D (IC50>1000 nM and <10,000 nM)”.
For `C=C[C@@H]1C[C@]1(NC(=O)[C@@H]1C[C@@H](Oc2cc(-c3ccccc3)nc3cc(OC)ccc23)CN1C(=O)[C@H](CCN(C)C(=O)CCl)NC(=O)OC(C)(C)C)C(=O)NS(=O)(=O)c1ccccc1` [Compound I-9, (2S)-2-[[(1,1-dimethylethoxy)carbonyl]amino]-4-(chloroacetyl)methylamino-butanoyl-(4R)-4-[(7-methoxy-2-phenyl-4-quinolinyl)oxy]-L-prolyl-1-amino-2-ethenyl-N-(phenylsulfonyl)-(1R,2S)-cyclopropanecarboxamide], the IC50 in series [1] (setting [9]) is less than 10 nM; in series [2], 10 to 100 nM; in series [3] (setting [10]) it was less than 10 nM; in series [4] (setting [12]) it was 10 to 100 nM; in series [4] (setting [13]), 10 to 100 nM; in series [5] (setting [14]), less than 10 nM. The IC50 in series [7] is 100 to 1000 nM; in series [8] it was less than 10 nM. The IC90 in series [4] (setting [11]) was greater than 10000 nM. Also, the “Inhibition, Cytotoxicity” value in series [6] was “C (IC50>100 nM and ≦1000 nM)”.
Consider `C=C[C@@H]1C[C@]1(NC(=O)[C@@H]1C[C@@H](Oc2cc(-c3ccccc3)nc3cc(OC)ccc23)CN1C(=O)[C@H](Cn1sc2ccccc2c1=O)NC(=O)OC(C)(C)C)C(=O)NS(=O)(=O)c1ccccc1` [Compound I-10, N-[(1,1-dimethylethoxy)carbonyl]-3-(benzoisothiazolin-3-one-2-yl)-L-alanyl-(4R)-4-[(7-methoxy-2-phenyl-4-quinolinyl)oxy]-L-prolyl-1-amino-2-ethenyl-N-(phenylsulfonyl)-(1R,2S)-cyclopropanecarboxamide], for which the IC50 in series [1] (setting [9]) is 10 to 100 nM; in series [3] (setting [10]) it was less than 10 nM; in series [4] (setting [12]), 100 to 1000 nM; in series [5] (setting [14]) it was 10 to 100 nM. Also, in series [6], the “Inhibition, Cytotoxicity” value is “D (IC50>1000 nM and <10,000 nM)”.
Take `C=C[C@@H]1C[C@]1(NC(=O)[C@@H]1C[C@@H](Oc2cc(-c3ccccc3)nc3cc(OC)ccc23)CN1C(=O)[C@H](CCNC(=O)C(C)Br)NC(=O)OC(C)(C)C)C(=O)NS(=O)(=O)c1ccccc1` (stereo partly drawn) [Compound I-20]: the IC50 in series [1] (setting [9]) is 100 to 1000 nM; in series [3] (setting [10]), less than 10 nM; in series [4] (setting [12]) it was 100 to 1000 nM; in series [5] (setting [14]), 100 to 1000 nM. The “Inhibition, Cytotoxicity” value in series [6] was “D (IC50>1000 nM and <10,000 nM)”.
In the case of `C=C[C@@H]1C[C@]1(NC(=O)[C@@H]1C[C@@H](Oc2cc(-c3ccccc3)nc3cc(OC)ccc23)CN1C(=O)[C@H](CNC(=O)C(Cl)c1ccccc1)NC(=O)OC(C)(C)C)C(=O)NS(=O)(=O)c1ccccc1` (stereo partly drawn) [Compound I-23, tert-butyl(S)-3-(2-chloro-2-phenylacetamido)-1-((2S,4R)-4-(7-methoxy-2-phenylquinolin-4-yloxy)-2-((1R,2S)-1-(phenylsulfonylcarbamoyl)-2-vinylcyclopropylcarbamoyl)pyrrolidin-1-yl)-1-oxopropan-2-ylcarbamate], the IC50 in series [1] (setting [9]) was 100 to 1000 nM; in series [3] (setting [10]), less than 10 nM; in series [4] (setting [12]), 100 to 1000 nM; in series [5] (setting [14]), 1000 to 10000 nM. Moreover, the “Inhibition, Cytotoxicity” value in series [6] is “D (IC50>1000 nM and <10,000 nM)”.
On to `C=C[C@@H]1C[C@]1(NC(=O)[C@@H]1C[C@@H](Oc2cc(-c3ccccc3)nc3cc(OC)ccc23)CN1C(=O)[C@H](CN(C)C(=O)CCl)NC(=O)OC(C)(C)C)C(=O)NS(=O)(=O)c1ccccc1` [Compound I-29, tert-butyl-(S)-3-(2-chloro-N-methylacetamido)-1-((2S,4R)-4-(7-methoxy-2-phenylquinolin-4-yloxy)-2-((1R,2S)-1-(phenylsulfonylcarbamoyl)-2-vinylcyclopropylcarbamoyl)pyrrolidin-1-yl)-1-oxopropan-2-ylcarbamate], for which the IC50 in series [1] (setting [9]) was less than 10 nM; in series [3] (setting [10]), less than 10 nM; in series [4] (setting [12]), 10 to 100 nM; in series [5] (setting [14]), less than 10 nM. In series [6], the “Inhibition, Cytotoxicity” value is “C (IC50>100 nM and ≦1000 nM)”.
For the compound `C=C[C@@H]1C[C@]1(NC(=O)[C@@H]1C[C@@H](Oc2cc(-c3ccccc3)nc3cc(OC)ccc23)CN1C(=O)[C@H](CNC(=O)CC)NC(=O)OC(C)(C)C)C(=O)NS(=O)(=O)c1ccccc1` [I^R-3, N-[(1,1-dimethylethoxy)carbonyl]-3-[(propionyl)amino]-L-alanyl-(4R)-4-[(7-methoxy-2-phenyl-4-quinolinyl)oxy]-L-prolyl-1-amino-2-ethenyl-N-(phenylsulfonyl)-(1R,2S)-cyclopropanecarboxamide], the IC50 is 100 to 1000 nM in series [1] (D168A enzyme, FRET assay; read-out: Inhibition, HCV D168A); less than 10 nM in series [3] (WT enzyme, FRET assay; read-out: Inhibition, WT); 1000 to 10000 nM in series [4] (Replicon, assay of Example 22, 72 hr, read-out: Inhibition, Replicon); 10 to 100 nM in series [5] (A156T enzyme, FRET assay; read-out: Inhibition, HCV A156T). The “Inhibition, Cytotoxicity” value in series [6] is recorded as “E (IC50≧10,000 nM)”.
